Where two headings read alike, the source gives them in different places. Values belong to the compound of their own block, whether it stands above or below them.
Legend:
[1] = UV absorbance (absorption maximum, molar extinction coefficient); assay type: physicochemical; conditions: for UV maximum: under acidic conditions
Source text: Gadusol, gadusporine A 100, gadusporine, B 102, and gadusporine C 104 may be isolated by column purification of Streptomyces coelicolor culture broth (as described in the above publication).
Despite the only difference being a hydroxy group, there are a few notable differences between shinorine and gadusporine A 100. Shinorine has been reported to have an absorption max=330 nm at pH 1.7 and an absorption max=334 nm at pH 7. […] Gadusporine A 100 has a molar extinction coefficient (□□=49,400, as measured in 50 mM phosphate buffer at pH 7.0, which is slightly higher than that of shinorine (□□=44,000), and thus has stronger UV absorbance activity.

Solubility in methanol = assay type: physicochemical
Source text: Gadusporine B 102 contains L-alanine and glycine, making gadusporine B 102 an analog of mycosporine-glycine-alanine.

cells = assay: In vivo antioxidant testing (intracytoplasmic activity in cells); assay type: cell-based; conditions: for lysis of the cells: highest dose 3.3 mg/ml
Description: The test is designed to measure antioxidant power but requires also that the anti-oxidant agent cross the cell's lipid boundary layer so that only intracytoplasmic activity is measured. […] Some activity was seen even at concentrations below 0.1 mg/ml.

[2] = cited from earlier work
Vero E6 fibroblasts = assay: Cellular toxicity in Vero E6 fibroblasts; assay type: cell-based; conditions: compared to oxybenzone
Source text: (§1) The cellular toxicity of gadusol was compared to that of a common sunscreen ingredient, oxybenzone. Vero E6 fibroblasts were used to evaluate toxicity.

Ames test (mutagenicity) = assay type: cell-based
Comet assay = assay type: cell-based
Source text: as §1

E. coli = assay: Toxicity towards E. coli; assay type: cell-based
[3] = Antioxidant capacity, Folin-Ciocalteu method; conditions: 0.3 to 10 mg/ml, versus porphyra-334
[4] = Storage stability of gadusol; assay type: physicochemical; conditions: after 90 days at pH 2.5
Source text: Addition of an antioxidant could be helpful in increasing the shelf life of gadusol. The stability of gadusol is much higher when stored under acidic conditions. For example, 90% activity was retained after 90 days at pH 2.5. Therefore, storage under acidic conditions may be useful for stabilizing gadusol generally, e.g., prior to introduction into a topical formulation. Combining gadusol with another antioxidant may be useful for extending the shelf life or stability of gadusol in a topical formulation. Storage of gadusol in nitrogen-purged solutions in containers with minimal headspace increased its stability.

Compound: Gadusporine A
molar extinction coefficient ([1]; 50 mM phosphate buffer at pH 7.0, in M-1 cm-1 (unit assumed)): 49,400 | absorption max ([1]; pH 2.0): 338 | absorption max ([1]; pH 7.0): 340 nm | UV maximum [1]: 338 nm

Compound: COC1=C(NCC(=O)O)C[C@@](O)(CO)C/C1=N\[C@@H](CO)C(=O)O [Shinorine]
absorption max ([2]; pH 1.7, reported): 330 nm | absorption max ([2]; pH 7, reported): 334 nm | molar extinction coefficient ([2]; shinorine comparison value): 44,000

Compound: COC1=C(O)CC(O)(CO)C(O)C1=O (stereo not shown) [Gadusol]
cellular toxicity (Vero E6 fibroblasts): less toxic than oxybenzone | mutagenicity (Ames test (mutagenicity)): not to be mutagenic | toxicity in comet assay (Comet assay): nor toxic in the comet assay | toxicity towards E. coli (E. coli): nor toxic towards E. coli | antioxidant power [3]: equivalent to a mycosporine compound | in vivo antioxidant activity (cells; at about 1 mg/ml, versus the mycosporine): significantly more active antioxidant | lysis of the cells (cells): some lysis of the cells | in vivo antioxidant activity (cells; overall, compared with porphyra-334): outperformed porphyra-334 | activity retained [4]: 90%

Now from value to compound:

UV maximum [1]: 338 nm | solubility in methanol (Solubility in methanol): not very soluble in methanol
Compound: Gadusporine B

lysis of the cells (cells): some lysis of the cells
Compound: COC1=C(NCC(=O)O)C[C@@](O)(CO)CC1=N[C@H](C(=O)O)[C@@H](C)O [porphyra-334, reference compound]

Reference: patent US20240148623A1, “GADUSOL AND GADUSPORINE COMPOUND FORMULATIONS FOR TOPICALS” (GADUSOL LABORATORIES, INC., priority 2021, published 2024)
